In patent US11376229B2, “Method of treating or preventing neurodegeneration” (Reprise Pharmaceuticals, Inc., priority 2011, dated 2022):

Legend:
TRPM4 = TRPM4 (Homo sapiens, UniProt Q8TD43); conditions: reported by Damien et al. 2007; Becerra et al. 2011; cited from earlier work
WT EAE mice [1] = assay: EAE clinical disability scores, MOG35-55-immunized mice treated with glibenclamide; assay type: in vivo; conditions: 10 μg daily i.p. from first clinical symptoms (day 8), vs vehicle (DMSO) control, P<0.05
Trpm4−/− EAE mice = assay: EAE clinical disability scores in Trpm4-/- mice treated with glibenclamide; assay type: in vivo; conditions: 10 μg daily i.p. from day 8, vs DMSO control
WT EAE mice [2] = assay: Immunohistochemical count of axons (SMI 31/SMI 32) and neuronal somata (NeuN) in cervical spinal cord of EAE mice; assay type: in vivo; conditions: 30 days post immunization, vs vehicle control

Sequence of TRPM4 (Q8TD43 whole entry, species assumed): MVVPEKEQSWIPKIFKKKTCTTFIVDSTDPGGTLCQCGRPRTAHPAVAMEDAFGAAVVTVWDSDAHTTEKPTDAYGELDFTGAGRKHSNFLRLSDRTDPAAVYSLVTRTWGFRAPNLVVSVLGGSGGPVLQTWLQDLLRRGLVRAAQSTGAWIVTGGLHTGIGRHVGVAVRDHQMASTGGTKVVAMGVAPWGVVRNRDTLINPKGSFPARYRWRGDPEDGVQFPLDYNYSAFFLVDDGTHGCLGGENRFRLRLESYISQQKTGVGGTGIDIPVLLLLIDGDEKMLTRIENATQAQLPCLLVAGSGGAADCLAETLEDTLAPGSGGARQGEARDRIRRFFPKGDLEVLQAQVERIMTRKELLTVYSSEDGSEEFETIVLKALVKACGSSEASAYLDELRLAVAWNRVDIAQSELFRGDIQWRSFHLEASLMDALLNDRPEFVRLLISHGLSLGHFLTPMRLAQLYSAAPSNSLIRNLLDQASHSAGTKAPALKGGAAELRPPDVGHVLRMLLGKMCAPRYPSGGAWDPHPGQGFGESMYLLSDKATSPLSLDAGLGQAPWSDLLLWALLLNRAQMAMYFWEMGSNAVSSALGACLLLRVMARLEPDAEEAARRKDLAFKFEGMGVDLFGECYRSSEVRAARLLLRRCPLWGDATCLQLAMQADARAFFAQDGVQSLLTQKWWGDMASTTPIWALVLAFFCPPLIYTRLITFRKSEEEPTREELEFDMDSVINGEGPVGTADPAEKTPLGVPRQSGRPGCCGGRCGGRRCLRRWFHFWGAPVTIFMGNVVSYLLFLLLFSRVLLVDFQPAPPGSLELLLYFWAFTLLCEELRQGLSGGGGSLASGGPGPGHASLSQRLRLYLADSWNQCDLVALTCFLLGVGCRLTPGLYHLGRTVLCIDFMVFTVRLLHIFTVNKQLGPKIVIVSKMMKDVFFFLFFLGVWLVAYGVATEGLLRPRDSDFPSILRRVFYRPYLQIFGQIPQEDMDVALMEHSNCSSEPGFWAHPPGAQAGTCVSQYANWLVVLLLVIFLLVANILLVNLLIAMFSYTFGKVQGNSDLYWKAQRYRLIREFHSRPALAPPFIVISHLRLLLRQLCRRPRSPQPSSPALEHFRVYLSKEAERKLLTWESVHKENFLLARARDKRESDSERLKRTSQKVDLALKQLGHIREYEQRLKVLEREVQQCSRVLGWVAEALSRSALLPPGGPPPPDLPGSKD

Structure (SMILES): COc1ccc(Cl)cc1C(=O)NCCc1ccc(S(=O)(=O)NC(=O)NC2CCCCC2)cc1 [glibenclamide]
- TRPM4 inhibition (TRPM4): effectively inhibit TRPM4
- clinical disability (mean clinical disability score) (WT EAE mice [1]): ameliorated disability
- clinical disability (mean clinical disability score) (Trpm4−/− EAE mice): no additional clinical improvement
- number of axons in the corticospinal tract (WT EAE mice [2]; P<0.01): preservation of axons
- number of axons in the dorsal column (WT EAE mice [2]; P<0.05): preservation of axons
- neuronal cell body loss in the gray matter of the spinal cord (WT EAE mice [2]; did not reach statistical significance): slightly diminished
